Laboratory results as given in paper PMC10141580, “Cyclic Dichalcogenides Extend the Reach of Bioreductive Prodrugs to Harness Thiol/Disulfide Oxidoreductases: Applications to seco-Duocarmycins Targeting the Thioredoxin System” (ACS Central Science, 2023).
Read-outs that look alike come from different tables or passages of the source.

System: NCI-60 standardized human tumor cell line panel
Assay: cells
Type: cell-based
[1] = cell line A549/ATCC (LC:A549/ATCC), TMI sheet
[2] = cell line BT-549 (BR:BT-549), TMI sheet
[3] = cell line CCRF-CEM (LE:CCRF-CEM), TMI sheet
[4] = cell line COLO 205 (CO:COLO 205), TMI sheet
[5] = cell line EKVX (LC:EKVX), TMI sheet
[6] = cell line HCC-2998 (CO:HCC-2998), TMI sheet
[7] = cell line HCT-15 (CO:HCT-15), TMI sheet
[8] = cell line HCT-116 (CO:HCT-116), TMI sheet
[9] = cell line HL-60(TB) (LE:HL-60(TB)), TMI sheet
[10] = cell line HOP-62 (LC:HOP-62), TMI sheet
[11] = cell line HOP-92 (LC:HOP-92), TMI sheet
[12] = cell line HT29 (CO:HT29), TMI sheet
[13] = cell line K-562 (LE:K-562), TMI sheet
[14] = cell line KM12 (CO:KM12), TMI sheet
[15] = cell line LOX IMVI (ME:LOX IMVI), TMI sheet
[16] = cell line M14 (ME:M14), TMI sheet
[17] = cell line MALME-3M (ME:MALME-3M), TMI sheet
[18] = cell line MCF7 (BR:MCF7), TMI sheet
[19] = cell line MDA-MB-435 (ME:MDA-MB-435), TMI sheet
[20] = cell line MOLT-4 (LE:MOLT-4), TMI sheet
[21] = cell line NCI-H23 (LC:NCI-H23), TMI sheet
[22] = cell line NCI-H226 (LC:NCI-H226), TMI sheet
[23] = cell line RPMI-8226 (LE:RPMI-8226), TMI sheet
[24] = cell line SF-539 (CNS:SF-539), TMI sheet
[25] = cell line SK-MEL-5 (ME:SK-MEL-5), TMI sheet
[26] = cell line SK-MEL-28 (ME:SK-MEL-28), TMI sheet
[27] = cell line SNB-19 (CNS:SNB-19), TMI sheet
[28] = cell line SR (LE:SR), TMI sheet
[29] = cell line SW-620 (CO:SW-620), TMI sheet
[30] = cell line T-47D (BR:T-47D), TMI sheet
[31] = cell line U251 (CNS:U251), TMI sheet
[32] = cell line UACC-62 (ME:UACC-62), TMI sheet
[33] = cell line UACC-257 (ME:UACC-257), TMI sheet

## COc1cc2cc(C(=O)N3CC(CCl)c4c3cc(OC(=O)N3CCN(C)C5CSSCC53)c3ccccc43)[nH]c2c(OC)c1OC (mixture of isomers) [Me-SS66C-CBI-TMI]
U251, read-out: GI50
  GI50: 140 nM
UACC-62, read-out: GI50
  GI50: 150 nM
UACC-257, read-out: GI50
  GI50: 500 nM
[1]
  NCI-60 screening: Log(GI50): -6.74
  NCI-60 screening: Log(RedIndex): 1.04
[2]
  NCI-60 screening: Log(GI50): -6.78
  NCI-60 screening: Log(RedIndex): 0.98
Cell line BT-549 (BR:BT-549), TMI sheet, read-out: NCI-60 screening: Raw GI50
  GI50: 170 nM
[3]
  NCI-60 screening: Log(GI50): -6.98
  NCI-60 screening: Log(RedIndex): 0.98
[4]
  NCI-60 screening: Log(GI50): -6.48
  NCI-60 screening: Log(RedIndex): 0.62
[5]
  NCI-60 screening: Log(GI50): -6.64
  NCI-60 screening: Log(RedIndex): 0.93
Cell line EKVX (LC:EKVX), TMI sheet, read-out: NCI-60 screening: Raw GI50
  GI50: 230 nM
[6]
  NCI-60 screening: Log(GI50): -6.84
  NCI-60 screening: Log(RedIndex): 1.02
Cell line HCC-2998 (CO:HCC-2998), TMI sheet, read-out: NCI-60 screening: Raw GI50
  GI50: 140 nM
[7]
  NCI-60 screening: Log(GI50): -6.61
  NCI-60 screening: Log(RedIndex): 0.85
Cell line HCT-15 (CO:HCT-15), TMI sheet, read-out: NCI-60 screening: Raw GI50
  GI50: 250 nM
[8]
  NCI-60 screening: Log(GI50): -6.73
  NCI-60 screening: Log(RedIndex): 0.9
[9]
  NCI-60 screening: Log(GI50): -7.28
  NCI-60 screening: Log(RedIndex): 1.16
[10]
  NCI-60 screening: Log(GI50): -6.69
  NCI-60 screening: Log(RedIndex): 0.46
Cell line HOP-62 (LC:HOP-62), TMI sheet, read-out: NCI-60 screening: Raw GI50
  GI50: 200 nM
[11]
  NCI-60 screening: Log(GI50): -6.62
  NCI-60 screening: Log(RedIndex): 1.02
Cell line HOP-92 (LC:HOP-92), TMI sheet, read-out: NCI-60 screening: Raw GI50
  GI50: 240 nM
[12]
  NCI-60 screening: Log(GI50): -6.65
  NCI-60 screening: Log(RedIndex): 0.83
Cell line HT29 (CO:HT29), TMI sheet, read-out: NCI-60 screening: Raw GI50
  GI50: 230 nM
[13]
  NCI-60 screening: Log(GI50): -6.4
  NCI-60 screening: Log(RedIndex): 0.23
[14]
  NCI-60 screening: Log(GI50): -5.96
  NCI-60 screening: Log(RedIndex): 0.27
[15]
  NCI-60 screening: Log(GI50): -6.78
  NCI-60 screening: Log(RedIndex): 0.82
Cell line LOX IMVI (ME:LOX IMVI), TMI sheet, read-out: NCI-60 screening: Raw GI50
  GI50: 170 nM
[16]
  NCI-60 screening: Log(GI50): -6.6
  NCI-60 screening: Log(RedIndex): 0.78
Cell line M14 (ME:M14), TMI sheet, read-out: NCI-60 screening: Raw GI50
  GI50: 250 nM
[17]
  NCI-60 screening: Log(GI50): -6.67
  NCI-60 screening: Log(RedIndex): 0.87
[18]
  NCI-60 screening: Log(GI50): -7.55
  NCI-60 screening: Log(RedIndex): 1.05
Cell line MCF7 (BR:MCF7), TMI sheet, read-out: NCI-60 screening: Raw GI50
  GI50: 28 nM
[19]
  NCI-60 screening: Log(GI50): -6.08
  NCI-60 screening: Log(RedIndex): 0.33
[20]
  NCI-60 screening: Log(GI50): -7.16
  NCI-60 screening: Log(RedIndex): 0.93
[21]
  NCI-60 screening: Log(GI50): -7.34
  NCI-60 screening: Log(RedIndex): 1.02
[22]
  NCI-60 screening: Log(GI50): -5.99
  NCI-60 screening: Log(RedIndex): 0.15
[23]
  NCI-60 screening: Log(GI50): -6.79
  NCI-60 screening: Log(RedIndex): 0.96
Cell line RPMI-8226 (LE:RPMI-8226), TMI sheet, read-out: NCI-60 screening: Raw GI50
  GI50: 160 nM
Cell line SF-268 (CNS:SF-268), TMI sheet
  NCI-60 screening: Log(GI50): -6.76
Cell line SF-268 (CNS:SF-268), TMI sheet, read-out: NCI-60 screening: Raw GI50
  GI50: 170 nM
Cell line SF-295 (CNS:SF-295), TMI sheet
  NCI-60 screening: Log(GI50): -6.88
Cell line SF-295 (CNS:SF-295), TMI sheet, read-out: NCI-60 screening: Raw GI50
  GI50: 130 nM
[24]
  NCI-60 screening: Log(GI50): -6.76
  NCI-60 screening: Log(RedIndex): 0.88
Cell line SF-539 (CNS:SF-539), TMI sheet, read-out: NCI-60 screening: Raw GI50
  GI50: 170 nM
[25]
  NCI-60 screening: Log(GI50): -6.78
  NCI-60 screening: Log(RedIndex): 0.99
Cell line SK-MEL-5 (ME:SK-MEL-5), TMI sheet, read-out: NCI-60 screening: Raw GI50
  GI50: 170 nM
[26]
  NCI-60 screening: Log(GI50): -6.58
  NCI-60 screening: Log(RedIndex): 1.14
Cell line SK-MEL-28 (ME:SK-MEL-28), TMI sheet, read-out: NCI-60 screening: Raw GI50
  GI50: 260 nM
[27]
  NCI-60 screening: Log(GI50): -6.65
  NCI-60 screening: Log(RedIndex): 1
[28]
  NCI-60 screening: Log(GI50): -7.43
  NCI-60 screening: Log(RedIndex): 0.87
[29]
  NCI-60 screening: Log(GI50): -6.58
  NCI-60 screening: Log(RedIndex): 0.85
Cell line SW-620 (CO:SW-620), TMI sheet, read-out: NCI-60 screening: Raw GI50
  GI50: 260 nM
[30]
  NCI-60 screening: Log(GI50): -6.54
  NCI-60 screening: Log(RedIndex): 0.82
[31]
  NCI-60 screening: Log(GI50): -6.86
  NCI-60 screening: Log(RedIndex): 1.04
Cell line U251 (CNS:U251), TMI sheet, read-out: NCI-60 screening: Raw GI50
  GI50: 140 nM
[32]
  NCI-60 screening: Log(GI50): -6.83
  NCI-60 screening: Log(RedIndex): 1.02
Cell line UACC-62 (ME:UACC-62), TMI sheet, read-out: NCI-60 screening: Raw GI50
  GI50: 150 nM
[33]
  NCI-60 screening: Log(GI50): -6.3
  NCI-60 screening: Log(RedIndex): 0.6
Mean over NCI cell lines, vs P-CC60
  mean reductive index: ca. 7
read-out: NCI-60 screening: Raw GI50
  GI50: 240 nM
